Species on record: Rattus norvegicus
Assay: Open TG-GATES - Regimen: Single
Assay type: toxicity, organism-based, Sprague-Dawley
Design: regimen Single, gender Male, age 6 weeks
Details: in vivo, po, 0 mg/kg, route gavage, dose level Control; for APTT / Bas / Eos / Fbg / Hb / Ht / Lym / MCHC / MCV / Mono / Neu / PT / Plat / RBC / Ret / WBC: tissue Blood; for KIDNEY_L / KIDNEY_R / KIDNEY_TOTAL: tissue Kidney; for LIVER: tissue Liver; for ALP / ALT / AST / BUN / CRE / DBIL / GLC / IP / K / LDH / Na / PL / RALB / TBIL / TC / TG / TP / gamma-GTP: tissue Plasma

Structure (SMILES): C#C[C@]1(O)CC[C@H]2[C@@H]3CCC4=Cc5oncc5C[C@]4(C)[C@H]3CC[C@@]21C [DANAZOL]
- TERMINAL_BW (3 h): 212.9 g
- APTT (3 h): 23 s
- Bas (3 h): 0%
- Eos (3 h): 1%
- Fbg (3 h): 292.6 mg/dL
- Hb (3 h): 13.2 g/dL
- Ht (3 h): 40%
- Lym (3 h): 77.2%
- MCHC (3 h): 33.1%
- MCV (3 h): 62.5 fL
- Mono (3 h): 2.4%
- Neu (3 h): 19.6%
- PT (3 h): 15.8 s
- Plat (3 h): 111.7 x10_4/uL
- RBC (3 h): 641.4 x10_4/ul
- Ret (3 h): 7%
- WBC (3 h): 76.3 x10_2/uL
- KIDNEY_L (3 h): 0.9 g
- KIDNEY_R (3 h): 0.9 g
- KIDNEY_TOTAL (3 h): 1.9 g
- LIVER (3 h): 10.1 g
- ALP (3 h): 1527.4 IU/L
- ALT (3 h): 41.8 IU/L
- AST (3 h): 78.2 IU/L
- BUN (3 h): 14.2 mg/dL
- CRE (3 h): 0.1 mg/dL
- DBIL (3 h): 0 mg/dL
- GLC (3 h): 187.6 mg/dL
- IP (3 h): 7.9 mg/dL
- K (3 h): 4.1 meq/L
- LDH (3 h): 204.4 IU/L
- Na (3 h): 142.8 meq/L
- PL (3 h): 131.8 mg/dL
- RALB (3 h): 3 g/dL
- TBIL (3 h): 0.01 mg/dL
- TC (3 h): 76.8 mg/dL
- TG (3 h): 70.8 mg/dL
- TP (3 h): 5.5 g/dL
- gamma-GTP (3 h): 2 IU/L
- TERMINAL_BW (6 h): 212.9 g
- APTT (6 h): 23.5 s
- Bas (6 h): 0%
- Eos (6 h): 1%
- Fbg (6 h): 300.6 mg/dL
- Hb (6 h): 13.1 g/dL
- Ht (6 h): 39.8%
- Lym (6 h): 81.2%
- MCHC (6 h): 32.8%
- MCV (6 h): 63 fL
- Mono (6 h): 2.2%
- Neu (6 h): 14.8%
- PT (6 h): 16.1 s
- Plat (6 h): 114.9 x10_4/uL
- RBC (6 h): 632 x10_4/ul
- Ret (6 h): 7.2%
- WBC (6 h): 105 x10_2/uL
- KIDNEY_L (6 h): 0.9 g
- KIDNEY_R (6 h): 1 g
- KIDNEY_TOTAL (6 h): 1.9 g
- LIVER (6 h): 9.1 g
- ALP (6 h): 1276.8 IU/L
- ALT (6 h): 39.4 IU/L
- AST (6 h): 73.4 IU/L
- BUN (6 h): 9.2 mg/dL
- CRE (6 h): 0.1 mg/dL
- DBIL (6 h): 0 mg/dL
- GLC (6 h): 182 mg/dL
- IP (6 h): 9 mg/dL
- K (6 h): 4.3 meq/L
- LDH (6 h): 168.6 IU/L
- Na (6 h): 141 meq/L
- PL (6 h): 118.2 mg/dL
- RALB (6 h): 3 g/dL
- TBIL (6 h): 0.02 mg/dL
- TC (6 h): 65.4 mg/dL
- TG (6 h): 49.4 mg/dL
- TP (6 h): 5.3 g/dL
- gamma-GTP (6 h): 1.4 IU/L
- TERMINAL_BW (9 h): 209.9 g
- APTT (9 h): 22.7 s
- Bas (9 h): 0%
- Eos (9 h): 0.2%
- Fbg (9 h): 295.4 mg/dL
- Hb (9 h): 13.3 g/dL
- Ht (9 h): 40.9%
- Lym (9 h): 83%
- MCHC (9 h): 32.5%
- MCV (9 h): 64 fL
- Mono (9 h): 2%
- Neu (9 h): 13.6%
- PT (9 h): 16.3 s
- Plat (9 h): 114.3 x10_4/uL
- RBC (9 h): 639.2 x10_4/ul
- Ret (9 h): 7.6%
- WBC (9 h): 87.3 x10_2/uL
- KIDNEY_L (9 h): 1 g
- KIDNEY_R (9 h): 1 g
- KIDNEY_TOTAL (9 h): 2 g
- LIVER (9 h): 9.1 g
- ALP (9 h): 1266 IU/L
- ALT (9 h): 33.2 IU/L
- AST (9 h): 63.6 IU/L
- BUN (9 h): 11.2 mg/dL
- CRE (9 h): 0.1 mg/dL
- DBIL (9 h): 0 mg/dL
- GLC (9 h): 199.8 mg/dL
- IP (9 h): 10.1 mg/dL
- K (9 h): 4.2 meq/L
- LDH (9 h): 144.2 IU/L
- Na (9 h): 141.8 meq/L
- PL (9 h): 124 mg/dL
- RALB (9 h): 2.9 g/dL
- TBIL (9 h): 0.016 mg/dL
- TC (9 h): 69.8 mg/dL
- TG (9 h): 54.8 mg/dL
- TP (9 h): 5.4 g/dL
- gamma-GTP (9 h): 1.2 IU/L
- TERMINAL_BW (24 h): 231.9 g
- APTT (24 h): 23.6 s
- Bas (24 h): 0%
- Eos (24 h): 0.8%
- Fbg (24 h): 281 mg/dL
- Hb (24 h): 13.3 g/dL
- Ht (24 h): 40.2%
- Lym (24 h): 81.4%
- MCHC (24 h): 32.9%
- MCV (24 h): 63.2 fL
- Mono (24 h): 2.2%
- Neu (24 h): 14.8%
- PT (24 h): 15.7 s
- Plat (24 h): 114.7 x10_4/uL
- RBC (24 h): 637.4 x10_4/ul
- Ret (24 h): 7.3%
- WBC (24 h): 102.5 x10_2/uL
- KIDNEY_L (24 h): 1 g
- KIDNEY_R (24 h): 1 g
- KIDNEY_TOTAL (24 h): 2.1 g
- LIVER (24 h): 11.3 g
- ALP (24 h): 1604 IU/L
- ALT (24 h): 48.2 IU/L
- AST (24 h): 74.8 IU/L
- BUN (24 h): 18.6 mg/dL
- CRE (24 h): 0.1 mg/dL
- DBIL (24 h): 0 mg/dL
- GLC (24 h): 197.8 mg/dL
- IP (24 h): 7.8 mg/dL
- K (24 h): 4.2 meq/L
- LDH (24 h): 173.8 IU/L
- Na (24 h): 142.2 meq/L
- PL (24 h): 140 mg/dL
- RALB (24 h): 3 g/dL
- TBIL (24 h): 0.006 mg/dL
- TC (24 h): 74.6 mg/dL
- TG (24 h): 93 mg/dL
- TP (24 h): 5.5 g/dL
